{"source": "patent US7446199B2", "about": "“Compositions useful as inhibitors of protein kinases” (Vertex Pharmaceuticals Incorporated, priority 2003, dated 2008)", "data": [{"biological_target": "T1, FLT-3 (Homo sapiens, UniProt P36888)", "T1 construct": "0.02% BSA and 3 nM FLT-3", "T1 sequence (P36888 27-993)": "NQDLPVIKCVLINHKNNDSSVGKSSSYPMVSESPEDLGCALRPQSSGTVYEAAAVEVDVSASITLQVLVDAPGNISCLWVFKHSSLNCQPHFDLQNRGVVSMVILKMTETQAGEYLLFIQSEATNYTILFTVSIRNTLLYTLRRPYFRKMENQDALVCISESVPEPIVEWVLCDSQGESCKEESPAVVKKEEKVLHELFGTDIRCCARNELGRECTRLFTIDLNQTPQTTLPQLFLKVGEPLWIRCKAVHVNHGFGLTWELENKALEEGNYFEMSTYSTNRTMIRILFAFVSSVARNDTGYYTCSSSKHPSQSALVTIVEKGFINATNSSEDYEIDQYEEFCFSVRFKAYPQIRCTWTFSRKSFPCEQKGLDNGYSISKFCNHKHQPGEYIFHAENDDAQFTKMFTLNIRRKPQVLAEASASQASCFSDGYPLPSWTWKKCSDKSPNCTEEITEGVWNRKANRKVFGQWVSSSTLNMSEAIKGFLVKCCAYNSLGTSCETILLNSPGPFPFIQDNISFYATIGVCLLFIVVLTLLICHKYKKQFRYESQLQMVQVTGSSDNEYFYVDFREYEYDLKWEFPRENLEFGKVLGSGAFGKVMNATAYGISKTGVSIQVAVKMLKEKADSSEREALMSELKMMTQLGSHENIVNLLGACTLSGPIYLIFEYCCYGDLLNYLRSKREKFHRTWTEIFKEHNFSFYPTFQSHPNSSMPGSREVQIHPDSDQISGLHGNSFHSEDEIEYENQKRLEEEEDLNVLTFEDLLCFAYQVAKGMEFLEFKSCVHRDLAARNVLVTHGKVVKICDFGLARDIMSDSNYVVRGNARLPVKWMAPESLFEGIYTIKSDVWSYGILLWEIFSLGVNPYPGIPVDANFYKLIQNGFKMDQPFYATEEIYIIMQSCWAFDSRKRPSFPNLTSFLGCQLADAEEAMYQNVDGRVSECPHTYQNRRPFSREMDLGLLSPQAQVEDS", "assay": "Inhibition of FLT-3, radiometric filter-binding assay", "format": "biochemical", "conditions": "90 μM ATP, 0.5 mg/mL pE4Y, room temperature", "method": "Compounds were screened for their ability to inhibit FLT-3 activity using a radiometric filter-binding assay. This assay monitors the ^33P incorporation into a substrate poly(Glu, Tyr) 4:1 (pE4Y). Reactions were carried out in a solution containing 100 mM HEPES (pH 7.5), 10 mM MgCl2, 25 mM NaCl, 1 mM DTT, 0.01% BSA and 2.5% DMSO. Final substrate concentrations in the assay were 90 μM ATP and 0.5 mg/mL pE4Y (both from Sigma Chemicals, St Louis, Mo.). The final concentration of compounds is generally between 0.01 and 5 μM. Typically, a 12-point titration was conducted by preparing serial dilutions from 10 mM DMSO stock of test compound. Reactions were carried out at room temperature.\nTwo assay solutions were prepared. Solution 1 contains 100 mM HEPES (pH 7.5), 10 mM MgCl2, 25 mM NaCl, 1 mg/ml pE4Y and 180 μM ATP(containing 0.3 μCi of [γ-^33P]ATP for each reaction). Solution 2 contains 100 mM HEPES (pH 7.5), 10 mM MgCl2, 25 mM NaCl, 2 mM DTT, 0.02% BSA and 3 nM FLT-3. The assay was run on a 96 well plate by mixing 50 μL each of Solution 1 and […] of the test compounds. The reaction was initiated with Solution2. After incubation for 20 minutes at room temperature, the reaction was stopped with 50 μL of 20% TCA containing 0.4 mM of ATP. All of the reaction volume was then transferred to a filter plate and washed with 5% TCA by a Harvester9600 from TOMTEC (Hamden, Conn.). The amount of ^33P incorporation into pE4y was analyzed by a Packard TopCount Microplate Scintillation Counter (Meriden, Conn.). The data was fitted using Prism software to get an IC50 or Ki.", "units": {"Ki": "µM"}, "values": [{"smiles": "Fc1cccc(-c2cnoc2-c2c[nH]c3ncc(-c4c[nH]cn4)cc23)c1F", "note": "[Compound 76, 3-[4-(2,3-Difluoro-phenyl)-isoxazol-5-yl]-5-(3H-imidazol-4-yl)-1H-pyrrolo[2,3-b]pyridine]", "Ki": "< 0.2"}, {"smiles": "Clc1cccc(-c2cnoc2-c2c[nH]c3ncc(-c4cccnc4)cc23)c1Cl", "note": "[Compound 99, 3-[4-(2,3-Dichloro-phenyl)-isoxazol-5-yl]-5-pyridin-3-yl-1H-pyrrolo[2,3-b]pyridine]", "Ki": "< 0.2"}, {"smiles": "C=Cc1cnc2[nH]cc(-c3oncc3-c3cccc(F)c3F)c2c1", "note": "[Compound 66, 3-[4-(2,3-Difluoro-phenyl)-isoxazol-5-yl]-5-vinyl-1H-pyrrolo[2,3-b]pyridine]", "Ki": "0.2 to 1"}, {"smiles": "Fc1cccc(-c2cnoc2-c2c[nH]c3ncc(C4CCNCC4)cc23)c1F", "note": "[Compound 62, 3-[4-(2,3-Difluoro-phenyl)-isoxazol-5-yl]-5-piperidin-4-yl-1H-pyrrolo[2,3-b]pyridine]", "Ki": "0.2 to 1"}, {"smiles": "Cc1noc(-c2c[nH]c3ncccc23)c1-c1cccc(F)c1F", "note": "[Compound 134, 3-[4-(2,3-Difluoro-phenyl)-3-methyl-isoxazol-5-yl]-1H-pyrrolo[2,3-b]pyridine]", "Ki": "< 0.2"}, {"smiles": "CN(C)CC#Cc1cnc2[nH]cc(-c3oncc3-c3cccc(F)c3F)c2c1", "note": "[Compound 53, (3-{3-[4-(2,3-Difluoro-phenyl)-isoxazol-5-yl]-1H-pyrrolo[2,3-b]pyridin-5-yl}-prop-2-ynyl)-dimethyl-amine]", "Ki": "0.2 to 1"}, {"smiles": "Fc1cccc(-c2cnoc2-c2c[nH]c3ncc(-c4ccc(CN5CCOCC5)cc4)cc23)c1F", "note": "[Compound 92, 3-[4-(2,3-Difluoro-phenyl)-isoxazol-5-yl]-5-(4-morpholin-4-ylmethyl-phenyl)-1H-pyrrolo[2,3-b]pyridine]", "Ki": "< 0.2"}, {"smiles": "CC(=O)N1CCC(c2cnc3[nH]cc(-c4oncc4-c4cccc(F)c4F)c3c2)CC1", "note": "[Compound 63, 1-(4-{3-[4-(2,3-Difluoro-phenyl)-isoxazol-5-yl]-1H-pyrrolo[2,3-b]pyridin-5-yl}-piperidin-1-yl)-ethanone]", "Ki": "0.2 to 1"}, {"smiles": "Nc1ccc(-c2cnc3[nH]cc(-c4oncc4-c4cccc(F)c4F)c3c2)cc1", "note": "[Compound 90, 4-{3-[4-(2,3-Difluoro-phenyl)-isoxazol-5-yl]-1H-pyrrolo [2,3-b]pyridin-5-yl}-phenylamine]", "Ki": "< 0.2"}, {"smiles": "CN(C)Cc1cc(Cl)nc(-c2cnc3[nH]cc(-c4oncc4-c4cccc(F)c4F)c3c2)c1", "note": "[Compound 81, (2-Chloro-6-{3-[4-(2,3-difluoro-phenyl)-isoxazol-5-yl]-1H-pyrrolo[2,3-b]pyridin-5-yl}-pyridin-4-ylmethyl)-dimethyl-amine]", "Ki": "0.2 to 1"}, {"smiles": "Fc1cccc(-c2cnoc2-c2c[nH]c3ncc(-c4cncnc4)cc23)c1F", "note": "[Compound 85, 3-[4-(2,3-Difluoro-phenyl)-isoxazol-5-yl]-5-pyrimidin-5-yl-1H-pyrrolo[2,3-b]pyridine]", "Ki": "0.2 to 1"}, {"smiles": "COc1cnc2[nH]cc(-c3oncc3-c3cccc(F)c3F)c2c1", "note": "[Compound 38, 3-[4-(2,3-Difluoro-phenyl)-isoxazol-5-yl]-5-methoxy-1H-pyrrolo[2,3-b]pyridine]", "Ki": "< 0.2"}, {"smiles": "Fc1cccc(-n2cnnc2-c2c[nH]c3ncc(-c4ccc(N5CCCC5)nc4)cc23)c1F", "note": "[Compound 118, 3-[4-(2,3-Difluoro-phenyl)-4H-[1,2,4]triazol-3-yl]-5-(6-pyrrolidin-1-yl-pyridin-3-yl)-1H-pyrrolo[2,3-b]pyridine]", "Ki": "0.2 to 1"}, {"smiles": "Fc1cccc(-c2cnoc2-c2c[nH]c3ncc(-c4ccc(CN5CCCC5)cc4)cc23)c1F", "note": "[Compound 93, 3-[4-(2,3-Difluoro-phenyl)-isoxazol-5-yl]-5-(4-pyrrolidin-1-ylmethyl-phenyl)-1H-pyrrolo[2,3-b]pyridine]", "Ki": "< 0.2"}, {"smiles": "Nc1ccnc(-c2cnc3[nH]cc(-c4oncc4-c4cccc(F)c4F)c3c2)c1", "note": "[Compound 83, 2-{3-[4-(2,3-Difluoro-phenyl)-isoxazol-5-yl]-1H-pyrrolo [2,3-b]pyridin-5-yl}-pyridin-4-ylamine]", "Ki": "1 to 12.5"}, {"smiles": "c1cnc2[nH]cc(-c3oncc3C3CCCCC3)c2c1", "note": "[Compound 47, 3-(4-Cyclohexyl-isoxazol-5-yl)-1H-pyrrolo[2,3-b]pyridine]", "Ki": "0.2 to 1"}, {"smiles": "Oc1cccc(-c2cnc3[nH]cc(-c4oncc4-c4cccc(F)c4F)c3c2)c1", "note": "[Compound 87, 3-{3-[4-(2,3-Difluoro-phenyl)-isoxazol-5-yl]-1H-pyrrolo [2,3-b]pyridin-5-yl}-phenol]", "Ki": "< 0.2"}, {"smiles": "CN(C)c1ccnc2[nH]cc(-c3oncc3-c3cccc(F)c3F)c12", "note": "[Compound 56, {3-[4-(2,3-Difluoro-phenyl)-isoxazol-5-yl]-1H-pyrrolo[2,3-b]pyridin-4-yl}-dimethyl-amine]", "Ki": "1 to 12.5"}, {"smiles": "Fc1cccc(-c2cnoc2-c2c[nH]c3ncc(-c4ccncc4)cc23)c1F", "note": "[Compound 57, 3-[4-(2,3-Difluoro-phenyl)-isoxazol-5-yl]-5-pyridin-4-yl-1H-pyrrolo[2,3-b]pyridine]", "Ki": "< 0.2"}, {"smiles": "CS(=O)(=O)Nc1ccc(-c2cnc3[nH]cc(-c4oncc4-c4cccc(F)c4F)c3c2)cc1", "note": "[Compound 98, N-(4-{3-[4-(2,3-Difluoro-phenyl)-isoxazol-5-yl]-1H-pyrrolo[2,3-b]pyridin-5-yl}-phenyl)-methane sulfonamide]", "Ki": "< 0.2"}, {"smiles": "CC(=O)Nc1cccc(-c2cnc3[nH]cc(-c4oncc4-c4cccc(F)c4F)c3c2)c1", "note": "[Compound 65, N-(3-{3-[4-(2,3-Difluoro-phenyl)-isoxazol-5-yl]-1H-pyrrolo[2,3-b]pyridin-5-yl}-phenyl)-acetamide]", "Ki": "< 0.2"}, {"smiles": "COC(=O)c1cnc2[nH]cc(-c3oncc3-c3cccc(F)c3F)c2c1", "note": "[Compound 105, 3-[4-(2,3-Difluoro-phenyl)-isoxazol-5-yl]-1H-pyrrolo[2,3-b]pyridine-5-carboxylic acid methyl ester]", "Ki": "< 0.2"}, {"smiles": "Clc1cccc(-c2cnoc2-c2c[nH]c3ncccc23)c1Cl", "note": "[Compound 2, 3-[4-(2,3-Dichloro-phenyl)-isoxazol-5-yl]-1H-pyrrolo[2,3-b]pyridine]", "Ki": "1 to 12.5"}, {"smiles": "Cn1ccc2c(-c3oncc3-c3cccc(F)c3F)c[nH]c2c1=O", "note": "[Compound 144, 3-[4-(2,3-Difluoro-phenyl)-isoxazol-5-yl]-6-methyl-1,6-dihydro-pyrrolo[2,3-c]pyridin-7-one]", "Ki": "1 to 12.5"}, {"smiles": "Fc1ccc(-c2cnc3[nH]cc(-c4oncc4-c4cccc(F)c4F)c3c2)cn1", "note": "[Compound 69, 3-[4-(2,3-Difluoro-phenyl)-isoxazol-5-yl]-5-(6-fluoro-pyridin-3-yl)-1H-pyrrolo[2,3-b]pyridine]", "Ki": "0.2 to 1"}, {"smiles": "Fc1cccc(-n2cnnc2-c2c[nH]c3ncc(-c4ccc(N5CCC[C@H]5CN5CCCC5)nc4)cc23)c1F", "note": "[Compound 115, 3-[4-(2,3-Difluoro-phenyl)-4H-[1,2,4]triazol-3-yl]-5-[6-(2-pyrrolidin-1-ylmethyl-pyrrolidin-1-yl)-pyridin-3-yl]-1H-pyrrolo[2,3-b]pyridine]", "Ki": "0.2 to 1"}, {"smiles": "CN1CCN(c2ccc(-c3cnc4[nH]cc(-c5oncc5-c5cccc(F)c5F)c4c3)cc2)CC1", "note": "[Compound 70, 3-[4-(2,3-Difluoro-phenyl)-isoxazol-5-yl]-5-[4-(4-methyl-piperazin-1-yl)-phenyl]-1H-pyrrolo[2,3-b]pyridine methanesulfonate]", "Ki": "< 0.2"}, {"smiles": "Fc1cccc(-c2cnoc2-c2c[nH]c3ncc(C4=CCC(N5CCOCC5)CC4)cc23)c1F", "note": "(stereo not shown) [Compound 139, 3-[4-(2,3-Difluoro-phenyl)-isoxazol-5-yl]-5-(4-morpholin-4-yl-cyclohex-1-enyl)-1H-pyrrolo[2,3-b]pyridine]", "Ki": "< 0.2"}]}]}
